What was measured:
Assay type in all cases: in vivo
Scirpus juncoides = assay: Test Example 1: herbicidal activity, application before weed generation in submerged conditions (symbol B); conditions: application herbicide amount 320 g/ha
Method in brief: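 0–5 visual score, 3 wk post-application. Submerged pots, alluvial soil, water 4 cm; seeds sown mixed, rice at 2.5 leaves transplanted. Emulsion diluted to predetermined dose, applied to water surface at sowing. 25–30 °C greenhouse.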

Leptochloa chinensis = assay: Test Example 3: herbicidal effect by foliage application, Wagner pot (symbol D); conditions: application herbicide amount 320 g/ha
Method in brief: (§1)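 Rating at 3 weeks post-spray, by defined criteria. Treatment: emulsion diluted with water to a predetermined amount, applied evenly to foliage of 14-day-old plants raised in alluvial soil flooded 0.1–0.5 cm deep at 25–30 °C, rice co-sown.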

Cyperus difformis = assay: Test Example 3: herbicidal effect by foliage application, Wagner pot (symbol E); conditions: application herbicide amount 320 g/ha
Method in brief: as §1

Digitaria ciliaris = assay: Test Example 4: herbicidal effect by soil treatment (symbol F); conditions: application herbicide amount 320 g/ha
Method in brief: (§2)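 Seeds were sown in sterilized diluvial soil, covered with about 1.5 cm of soil, and the soil surface was sprayed with a water-diluted emulsion of the compound at a predetermined rate. Plants grew in a greenhouse at 25° C. to 30° C.; effects were scored visually 3 weeks after application.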

[1] = system: Echinochloa crus-galli var. crus-galli; assay: Test Example 4: herbicidal effect by soil treatment (symbol H); conditions: application herbicide amount 320 g/ha
Method in brief: as §2

Lolium multiflorum Lam. = assay: Test Example 4: herbicidal effect by soil treatment (symbol K); conditions: application herbicide amount 320 g/ha
Method in brief: as §2

Amaranthus retroflexus = assay: Test Example 4: herbicidal effect by soil treatment (symbol N); conditions: application herbicide amount 320 g/ha
Method in brief: as §2

Chenopodium album [2] = assay: Test Example 4: herbicidal effect by soil treatment (symbol O); conditions: application herbicide amount 320 g/ha
Method in brief: as §2

rice = assay: Test Example 4: effect on crop by soil treatment (symbol b); conditions: application herbicide amount 320 g/ha
Method in brief: (§3)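 Greenhouse culture at 25° C. to 30° C. followed sowing of seed in spots on sterilized diluvial soil with a soil cover close to 1.5 cm thick.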

beet = assay: Test Example 4: effect on crop by soil treatment (symbol f); conditions: application herbicide amount 320 g/ha
Method in brief: as §3

Setaria viridis = assay: Test Example 5: herbicidal effect by foliage application, plastic box (symbol G); conditions: 320 g/ha, 3 weeks after application
Method in brief: (§4)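 Sowing in sterilized diluvial soil, 14 days' greenhouse growth at 25° C. to 30° C., then uniform small-sprayer foliar application of aqueous emulsion dilution; plants scored three weeks afterwards.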

Alopecurus myosuroides = assay: Test Example 5: herbicidal effect by foliage application, plastic box (symbol J); conditions: 320 g/ha, 3 weeks after application
Method in brief: as §4

Abutilon theophrasti = assay: Test Example 5: herbicidal effect by foliage application, plastic box (symbol M); conditions: 320 g/ha, 3 weeks after application
Method in brief: as §4

Chenopodium album [3] = assay: Test Example 5: herbicidal effect by foliage application, plastic box (symbol O); conditions: 320 g/ha, 3 weeks after application
Method in brief: as §4

Stellaria media = assay: Test Example 5: herbicidal effect by foliage application, plastic box (symbol P); conditions: 320 g/ha, 3 weeks after application
Method in brief: as §4

Galium spurium = assay: Test Example 5: herbicidal effect by foliage application, plastic box (symbol Q); conditions: 320 g/ha, 3 weeks after application
Method in brief: as §4

Veronica persica = assay: Test Example 5: herbicidal effect by foliage application, plastic box (symbol R); conditions: 320 g/ha, 3 weeks after application
Method in brief: as §4

soybean = assay: Test Example 5: effect on crop by foliage application, plastic box (symbol d); conditions: 320 g/ha, 3 weeks after application
Method in brief: (§5)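 Diluvial soil, sterilized and boxed (21 × 13 × 7 cm), received spot-sown seed covered by about 1.5 cm soil; plants were then greenhouse-grown at 25–30° C.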

rice plant = assay: Test Example 5: effect on crop by foliage application, plastic box (symbol b); conditions: 320 g/ha, 3 weeks after application
Method in brief: as §5

SMILES | Herbicidal effect grade, B: Scirpus juncoides (Scirpus juncoides) | herbicidal effect on D (Leptochloa chinensis), grade 0-5 (Leptochloa chinensis) | herbicidal effect on E, grade 0-5 (Cyperus difformis) | F: Digitaria ciliaris, herbicidal effect grade (Digitaria ciliaris) | H: Echinochloa crus-galli var. crus-galli, herbicidal effect grade [1] | K: Lolium multiflorum Lam., herbicidal effect grade (Lolium multiflorum Lam.) | N: Amaranthus retroflexus, herbicidal effect grade (Amaranthus retroflexus) | O: Chenopodium album, herbicidal effect grade (Chenopodium album [2]) | b: directly sowed rice plant, effect on crop grade (rice) | f: beet, effect on crop grade (beet) | G: Setaria viridis, herbicidal effect grade (Setaria viridis) | J: Alopecurus myosuroides, herbicidal effect grade (Alopecurus myosuroides) | M: Abutilon theophrasti, herbicidal effect grade (Abutilon theophrasti) | O: Chenopodium album, herbicidal effect grade (Chenopodium album [3]) | P: Stellaria media, herbicidal effect grade (Stellaria media) | Q: Galium spurium, herbicidal effect grade (Galium spurium) | R: Veronica persica, herbicidal effect grade (Veronica persica) | d: soybean, effect on crop grade (soybean) | b: directly sowed rice plant, effect on crop grade (rice plant)
CCCC(=O)CC1CC(O)=C(c2c(C)cc(C)cc2C)C1=O (stereo not shown) [2-021] | 4 (Herbicidal ratio of 70% or higher and lower than 90%) | 3 (Herbicidal ratio of 40% or higher and lower than 70%) | 3 (Herbicidal ratio of 40% or higher and lower than 70%) | 5 (Herbicidal ratio of 90% or more (almost completely withered)) | 4 (Herbicidal ratio of 70% or higher and lower than 90%) | 5 (Herbicidal ratio of 90% or more (almost completely withered)) | 2 (Herbicidal ratio of 20% or higher and lower than 40%) | 0 (Herbicidal ratio of 5% or lower (almost no effect)) | 5 (Herbicidal ratio of 90% or more (almost completely withered)) | 0 (Herbicidal ratio of 5% or lower (almost no effect)) | 4 (Herbicidal ratio of 70% or higher and lower than 90%) | 5 (Herbicidal ratio of 90% or more (almost completely withered)) | 0 (Herbicidal ratio of 5% or lower (almost no effect)) | 0 (Herbicidal ratio of 5% or lower (almost no effect)) | 0 (Herbicidal ratio of 5% or lower (almost no effect)) | 0 (Herbicidal ratio of 5% or lower (almost no effect)) | 0 (Herbicidal ratio of 5% or lower (almost no effect)) | 0 (Herbicidal ratio of 5% or lower (almost no effect)) | 4 (Herbicidal ratio of 70% or higher and lower than 90%)
CCOC(=O)C(C(=O)CC1CC1)C1CC(O)=C(c2c(C)cc(C)cc2C)C1=O (stereo not shown) [2-025] | 0 (Herbicidal ratio of 5% or lower (almost no effect)) | 1 (Herbicidal ratio of 5% or higher and lower than 20%) | 0 (Herbicidal ratio of 5% or lower (almost no effect)) | 4 (Herbicidal ratio of 70% or higher and lower than 90%) | 4 (Herbicidal ratio of 70% or higher and lower than 90%) | 4 (Herbicidal ratio of 70% or higher and lower than 90%) | 0 (Herbicidal ratio of 5% or lower (almost no effect)) | 0 (Herbicidal ratio of 5% or lower (almost no effect)) | 5 (Herbicidal ratio of 90% or more (almost completely withered)) | 0 (Herbicidal ratio of 5% or lower (almost no effect)) | 5 (Herbicidal ratio of 90% or more (almost completely withered)) | 4 (Herbicidal ratio of 70% or higher and lower than 90%) | 0 (Herbicidal ratio of 5% or lower (almost no effect)) | 0 (Herbicidal ratio of 5% or lower (almost no effect)) | 0 (Herbicidal ratio of 5% or lower (almost no effect)) | 0 (Herbicidal ratio of 5% or lower (almost no effect)) | 0 (Herbicidal ratio of 5% or lower (almost no effect)) | 0 (Herbicidal ratio of 5% or lower (almost no effect)) | 4 (Herbicidal ratio of 70% or higher and lower than 90%)
Cc1cc(C)c(C2=C(O)CC(CC(=O)C3CCCC3)C2=O)c(C)c1 (stereo not shown) [2-028] | 0 (Herbicidal ratio of 5% or lower (almost no effect)) | 5 (Herbicidal ratio of 90% or more (almost completely withered)) | 4 (Herbicidal ratio of 70% or higher and lower than 90%) | 4 (Herbicidal ratio of 70% or higher and lower than 90%) | 1 (Herbicidal ratio of 5% or higher and lower than 20%) | 5 (Herbicidal ratio of 90% or more (almost completely withered)) | 0 (Herbicidal ratio of 5% or lower (almost no effect)) | 0 (Herbicidal ratio of 5% or lower (almost no effect)) | 5 (Herbicidal ratio of 90% or more (almost completely withered)) | 0 (Herbicidal ratio of 5% or lower (almost no effect)) | 5 (Herbicidal ratio of 90% or more (almost completely withered)) | 4 (Herbicidal ratio of 70% or higher and lower than 90%) | 0 (Herbicidal ratio of 5% or lower (almost no effect)) | 0 (Herbicidal ratio of 5% or lower (almost no effect)) | 0 (Herbicidal ratio of 5% or lower (almost no effect)) | 0 (Herbicidal ratio of 5% or lower (almost no effect)) | 0 (Herbicidal ratio of 5% or lower (almost no effect)) | 0 (Herbicidal ratio of 5% or lower (almost no effect)) | 5 (Herbicidal ratio of 90% or more (almost completely withered))
Cc1cc(C)c(C2=C(O)CC(CC(=O)C3CCCCC3)C2=O)c(C)c1 (stereo not shown) [2-030] | 0 (Herbicidal ratio of 5% or lower (almost no effect)) | 5 (Herbicidal ratio of 90% or more (almost completely withered)) | 0 (Herbicidal ratio of 5% or lower (almost no effect)) | 4 (Herbicidal ratio of 70% or higher and lower than 90%) | 1 (Herbicidal ratio of 5% or higher and lower than 20%) | 4 (Herbicidal ratio of 70% or higher and lower than 90%) | 0 (Herbicidal ratio of 5% or lower (almost no effect)) | 0 (Herbicidal ratio of 5% or lower (almost no effect)) | 5 (Herbicidal ratio of 90% or more (almost completely withered)) | 0 (Herbicidal ratio of 5% or lower (almost no effect)) | 5 (Herbicidal ratio of 90% or more (almost completely withered)) | 3 (Herbicidal ratio of 40% or higher and lower than 70%) | 0 (Herbicidal ratio of 5% or lower (almost no effect)) | 0 (Herbicidal ratio of 5% or lower (almost no effect)) | 0 (Herbicidal ratio of 5% or lower (almost no effect)) | 0 (Herbicidal ratio of 5% or lower (almost no effect)) | 1 (Herbicidal ratio of 5% or higher and lower than 20%) | 0 (Herbicidal ratio of 5% or lower (almost no effect)) | 5 (Herbicidal ratio of 90% or more (almost completely withered))

Source: patent US11000033B2, “Ketone or oxime compound, and herbicide” (NISSAN CHEMICAL CORPORATION, priority 2014, dated 2021)
